Assays:
BaF3 [1] = assay: Antiproliferative activity against mouse BaF3 cells harboring wild-type FGFR2 assessed as reduction in cell proliferation measured after 72 hrs by MTS assay; assay type: functional, cell-based; conditions: BaF3, 72 h
BaF3 [2] = assay: Antiproliferative activity against mouse BaF3 cells harboring wild-type FGFR3 assessed as reduction in cell proliferation measured after 72 hrs by MTS assay; assay type: functional, cell-based; conditions: BaF3, 72 h
BaF3 [3] = assay: Antiproliferative activity against mouse BaF3 cells harboring wild-type FGFR4 assessed as reduction in cell proliferation measured after 72 hrs by MTS assay; assay type: functional, cell-based; conditions: BaF3, 72 h
BaF3 [4] = assay: Antiproliferative activity against mouse BaF3 cells harboring wild-type FGFR1 assessed as reduction in cell proliferation measured after 72 hrs by MTS assay; assay type: functional, cell-based; conditions: BaF3, 72 h
BaF3 [5] = assay: Antiproliferative activity against mouse BaF3 cells harboring FGFR2 V564M mutant assessed as reduction in cell proliferation measured after 72 hrs by MTS assay; assay type: functional, cell-based; conditions: BaF3, 72 h
[6] = Inhibition of SRC T338M mutant (unknown origin); parameters: species or system Homo sapiens

| SMILES | EC50 (BaF3 [1]) [nM] | EC50 (BaF3 [2]) [nM] | EC50 (BaF3 [3]) [nM] | EC50 (BaF3 [4]) [nM] | EC50 (BaF3 [5]) [nM] | IC50 [6] [nM] |
| --- | --- | --- | --- | --- | --- | --- |
| C=CC(=O)Nc1ccc(CN(C(=O)Nc2c(Cl)c(OC)cc(OC)c2Cl)c2cc(Nc3ccc(N4CCN(C)CC4)cc3)ncn2)cc1 | 1 | 1 | 1 | 1 | 64 |  |
| C=CC(=O)Nc1ccc(CN2C(=O)N(c3cc(OC)cc(OC)c3)Cc3cnc(Nc4ccc(N5CCN(C)CC5)cc4)nc32)cc1 | 1 | 1 | 1 | 1 | 58 |  |
| C=CS(=O)(=O)NCCC(=O)Nc1cccc(Nc2nccc(Nc3ncc(C(=O)Nc4c(C)cccc4Cl)s3)n2)c1 |  |  |  |  |  | 44 |
